Assay results published in patent publication US11458144B1, “Methods for using 5-HMF analogs with increased solubility to inhibit or reverse RBC sickling” (King Abdulaziz University, priority 2021, dated 2022).

Tests used:
Hb [1] = target: T1, Hb (Homo sapiens, UniProt P68871+P69905, E7V); assay: Hb adduct formation (Hb modification) by cation-exchange HPLC, SS blood lysates; format: binding; conditions: SS RBCs
T1 construct: Using homozygous sickle (SS) blood from patients; endogenous in cells; host or cells: red blood cells of homozygous SS patient blood (hematocrit 20%); clarified lysates measured after incubation
Excerpt: (§1) The effect of the MMA compounds and positive control 5-HMF on RBC sickling, Hb modification, and Hb oxygen equilibrium was studied utilizing SS blood following previous procedure.^[27]
The Hb adduct formation study also used clarified lysates that were subjected to a cation-exchange HPLC (Hitachi D-7000 Series, Hitachi Instruments, Inc., San Jose, Calif.), and a weak cation-exchange column (Poly CAT A: 30 mm×4.6 mm, Poly LC, Inc., Columbia, Md.).
(§2) Using homozygous sickle (SS) blood from patients, the MMA compounds (MMA502, MMA503, MMA504, MMA505, and MMA509 were tested with 5-HMF as control for Hb adduct formation, effect on Hb affinity for oxygen and corresponding antisickling activities (RBC morphology study) using previously published protocols.^14,15

SS RBCs = assay: Antisickling study (RBC morphology) in SS blood under hypoxia; format: cell-based, human; conditions: 2 mM; for inhibition at 2000 µM: Homo sapiens, SS blood hematocrit 20%, 2.5% O2, 37° C., read-out: % Sickling inhibition
Protocol: as §1
For the antisickling study, SS blood (hematocrit 20%) were incubated under air in the absence or presence of all the MMA compounds (0.5 mM, 1 mM and 2 mM) at 37° C. for 1 h, followed by incubating the mixture under hypoxic conditions (2.5% O2) at 37° C. for 2 h. Aliquots with fixed 2% glutaraldehyde solution and under anaerobic condition were subjected to microscopic morphological analysis.^[11]
as §2

Hb [2] = target: T1, Hb; assay: Oxygen equilibrium study (P50 shift) of lysates from SS blood, Hemox Analyzer; format: cell-based; conditions: SS RBCs
Protocol: as §1
For the oxygen equilibrium study, about 100 μL aliquot of clarified lysate of residual samples from the above antisickling study was added to 4 mL of 0.1 M potassium phosphate buffer, pH 7.0, in cuvettes and subjected to hemoximetry analysis using Hemox™ Analyzer (TCS Scientific Corp., New Hope, Pa.) to assess P50 shift, which is the partial pressure of oxygen (PO2) at which 50% of Hb is saturated with oxygen (SO2). Degree of Hb O2 affinity shift (ΔP50) was expressed as percentage fractions of control DMSO-treated samples.
as §2

HbA = target: T2, HbA (Homo sapiens, UniProt P68871+P69905); assay: Time-dependent Hb oxygen equilibrium study in normal whole blood; format: cell-based; conditions: 2 mM, 20% hematocrit
T2 construct: time-dependent P50-shift of HbA in normal blood (20% hematocrit); endogenous in cells; host or cells: red blood cells in normal whole blood of adult donors (hematocrit 20%)
Protocol: The time-dependent effect of the MMA compounds and positive control 5-HMF on Hb oxygen affinity was studied using normal blood following previous procedure.^[15] Briefly, normal blood samples (hematocrit 20%) were incubated with the compounds at 37° C. for 24 h. Aliquots were taken at various time points and incubated in IL 237 tonometers (Instrumentation Laboratories, Inc. Lexington, Mass.) for 10 minutes at 37° C., and allowed to equilibrate at oxygen tensions 6, 20, and 40 mmHg. The samples were then aspirated into an ABL 700 Automated Blood Gas Analyzer (Radiometer) to determine the pH, partial pressure of CO2 (pCO2), partial pressure of oxygen (pO2), and Hb oxygen saturation values (SO2). The measured values of pO2 (mmHg) and SO2 at each pO2 value were then subjected to a non-linear regression analysis using the program Scientist (Micromath, Salt Lake City, Utah) to estimate P50 as previously reported.^[28]
5-HMF has a short half-life and poor oral bioavailability due to this metabolic instability, which in part prevented its development for chronic use. Nonetheless, this metabolic instability could be advantageous for parenteral formulation for acute use. […] Briefly, blood samples (hematocrit 20%) were incubated with the compounds at 37° C. for 24 h, and aliquots were taken at the various time points and used to determine the PO2 and SO2 using ABL 800 Automated Blood Gas Analyzer (Radiometer), and to estimate P50 as previously reported.^[10]
The study confirmed the trend in the biological potencies observed with SS blood.

[3] = tested on: human cytochrome P450 (CYP) enzymes; assay: In vitro CYP inhibition, panel of seven enzymes (overall statement); format: in vitro ADME; conditions: 0.1 to 100 μM; pooled human liver microsomes
Protocol: The probe substrates include tacrine (CYP1A2), amodiaquine (CYP2C8), tolbutamide (CYP2C9), mephenytoin (CYP2C19), dextromethorphan (CYP2D6), midazolam (CYP3A4), testosterone (CYP3A4), and bupropion (CYP2B6). […] The assays were performed in duplicate in 96-well plates at 37° C. for 10-60 minutes. The reaction was terminated with addition of methanol, followed by incubation at 4° C. for 10 min and centrifuged at 4° C. for 10 min.

With `O=Cc1ccc(N2CCC(O)CC2)o1` [MMA-504, 5-(4-hydroxypiperidin-1-yl)furan-2-carbaldehyde] the “% Hb-modification (adduct formation)” value (Hb [1]; 0.5 mM) was 0.0 ± 0.0%, the “% Hb-modification (adduct formation)” value (Hb [1]; 1 mM) was 0.0 ± 1.0% and the “% Hb-modification (adduct formation)” value (Hb [1]; 2 mM, listed as 504) was 0.4 ± 0.8%. For the same molecule, the “% Hb-modification (adduct formation)” value (Hb [1]; 2 mM, listed as MMA504) was less than 1%, the inhibition at 2000 µM (SS RBCs) was 27% and the “% Hb-O2 affinity (P50 shift vs DMSO control)” value (Hb [2]; 0.5 mM) was 4.4 ± 5.1%. For the same molecule, the “% Hb-O2 affinity (P50 shift vs DMSO control)” value (Hb [2]; 1 mM) was 5.3 ± 1.5%, the “% Hb-O2 affinity (P50 shift vs DMSO control)” value (Hb [2]; 2 mM, listed as 504) was 2.7 ± 1.2% and the “% Hb-O2 affinity (P50 shift vs DMSO control)” value (Hb [2]; 2 mM, listed as MMA504) was 3%.

For `N#Cc1ccc(C=O)o1` [MMA-505, 5-formylfuran-2-carbonitrile], the “% Hb-modification (adduct formation)” value (Hb [1]; 0.5 mM) was 4.2 ± 1.6%, the “% Hb-modification (adduct formation)” value (Hb [1]; 1 mM) was 10.4 ± 2.6% and the “% Hb-modification (adduct formation)” value (Hb [1]; 2 mM, listed as 505) was 26.7 ± 6.0%. For the same molecule, the “% Hb-modification (adduct formation)” value (Hb [1]; 2 mM, listed as MMA505) was 27%, the “antisickling activity relative to 5-HMF” value (SS RBCs; over 5-HMF) was roughly 2.5 fold and the inhibition at 2000 µM (SS RBCs) was 55%. For the same molecule, the “%P50 shift” value (HbA; at 1 hour) was 11%, the “duration of effect on Hb oxygen affinity” value (HbA; time course 0-8 hrs) was “completely losing activity after 3 hours” and the “% Hb-O2 affinity (P50 shift vs DMSO control)” value (Hb [2]; 0.5 mM) was 5.5 ± 1.2%. For the same molecule, the “% Hb-O2 affinity (P50 shift vs DMSO control)” value (Hb [2]; 1 mM) was 14.6 ± 2.1%, the “% Hb-O2 affinity (P50 shift vs DMSO control)” value (Hb [2]; 2 mM, listed as 505) was 32.0 ± 3.0% and the “% Hb-O2 affinity (P50 shift vs DMSO control)” value (Hb [2]; 2 mM, listed as MMA505) was 40%.

In the case of `O=Cc1ccc(C2CCCCO2)o1` (stereo not shown) [MMA-509], the “inhibition of liver CYP isozymes” value [3] is reported as “no inhibition”, the “% Hb-modification (adduct formation)” value (Hb [1]; 0.5 mM) is reported as 16.2 ± 0.0% and the “% Hb-modification (adduct formation)” value (Hb [1]; 1 mM) is reported as 27.6 ± 3.6%. For the same molecule, the “% Hb-modification (adduct formation)” value (Hb [1]; 2 mM, listed as 509) was 53.3 ± 3.9%, the “% Hb-modification (adduct formation)” value (Hb [1]; 2 mM, listed as MMA509) was 53% and the “%P50 shift” value (HbA; at 1.5 hours) was 60%. For the same molecule, the “% Hb-O2 affinity (P50 shift vs DMSO control)” value (Hb [2]; 0.5 mM) was 16.3 ± 1.5%, the “% Hb-O2 affinity (P50 shift vs DMSO control)” value (Hb [2]; 1 mM) was 34.5 ± 14.4% and the “% Hb-O2 affinity (P50 shift vs DMSO control)” value (Hb [2]; 2 mM, listed as 509) was 58.5 ± 15.3%. For the same molecule, the “% Hb-O2 affinity (P50 shift vs DMSO control)” value (Hb [2]; 2 mM, listed as MMA509) was 59%.
